Consider two compounds from patent publication US20210260070A1, “LYSIN CF-301 RESENSITIZES METHICILLIN-RESISTANT STAPHYLOCOCCUS AUREUA (MRSA) TO PENICILLIN DERIVATIVES AND FIRST GENERATION CEPHALOSPORINS” (priority 2018, published 2021).

Structures are written as SMILES.

What all share (type): cell-based, Staphylococcus aureus
One test concerns MRSA strain ATCC 33591. Briefly: Broth microdilution checkerboard assay. Details: unit not given here. As to conditions: for MICinitial: each agent alone (initial); for MICfinal: * = Resensitization. From the text: (§1) In some embodiments, the present lysin polypeptides reduce the minimum inhibitory concentration (MIC) of an antibiotic. Any known method to assess MIC may be used. In some embodiments, a checkerboard assay is used to determine the effect of a lysin on antibiotic concentration. The checkerboard assay is based on a modification of the CLSI method for MIC determination by broth microdilution (See Clinical and Laboratory Standards Institute (CLSI), CLSI. 2015. Methods for Dilution Antimicrobial Susceptibility Tests for Bacteria That Grow Aerobically; Approved Standard-10th Edition. Clinical and Laboratory Standards Institute, Wayne, Pa., which is herein incorporated by reference in its entirety and Ceri et al. 1999. J. Clin. Microbiol. 37: 1771-1776, which is also herein incorporated by reference in its entirety).
(§2) Checkerboards are constructed by first preparing columns of e.g., a 96-well polypropylene microtiter plate, wherein each well has the same amount of antibiotic diluted 2-fold along the horizontal axis. […] The lysin and antibiotic dilutions are then combined, so that each column has a constant amount of antibiotic and doubling dilutions of lysin, while each row has a constant amount of lysin and doubling dilutions of antibiotic. Each well thus has a unique combination of lysin and antibiotic. Bacteria are added to the drug combinations at a given concentration. […] Summation fractional inhibitory concentrations (ΣFICs) are calculated for each drug and the minimum ΣFIC value (ΣFICmin) is used to determine the effect of the lysin/antibiotic combination.
(§3) A step-wise approach was used to evaluate PlySs2 as a resensitizing agent. First, broth microdilution checkerboard assays were used to determine fractional inhibitory concentration index (FICI) values for combinations of PlySs2 with three β-lactam antibiotics [oxacillin (OXA), nafcillin (NAF), and cefazoline (CFZ)] against nine different MRSA strains. Data from the checkerboard assays were generated to determine the interaction and potency of PlySs2 with the β-lactam antibiotics in comparison to their individual activities. This comparison is represented as the FICI value, whereby values of ≤0.5 are consistent with synergy, values of >0.5-<1 are highly-additive, values of 1-≤2 are indifferent, and values >2 are antagonistic. Representative single agent MICs are also shown, determined for each agent alone (initial) and in combinations (final). Resensitization occurs in synergistic combinations in which the β-lactam antibiotic MIC values fall below established breakpoints, e.g. a MIC value of ≤2 for β-lactam-sensitive isolates, a MIC value of ≥4 for β-lactam-resistant isolates. See Clinical and Laboratory Standards Institute (CLSI), CLSI. 2019. M100 Performance Standards for Antimicrobial Susceptibility Testing; 29th Edition. Clinical and Laboratory Standards Institute, Wayne, Pa.

The subject of another test is MRSA strain ATCC 43300. The test is described as follows: Broth microdilution checkerboard assay. On the set-up: unit not given here. The settings on record: for MICinitial: each agent alone (initial); for MICfinal: * = Resensitization.
Text: as §1, §2, §3
(In general: Broth dilution looks for growth in wells or tubes with falling amounts of substance.)

The next test deals with MRSA strain CAIRD 426. The test is described as follows: Broth microdilution checkerboard assay. Details: unit not given here. As to conditions: for MICinitial: each agent alone (initial); for MICfinal: * = Resensitization.
Text: as §1, §2, §3

In another test the test system is MRSA strain HPV 107. The test is described as follows: Broth microdilution checkerboard assay. On the set-up: unit not given here. The settings on record: for MICinitial: each agent alone (initial); for MICfinal: * = Resensitization.
Text: as §1, §2, §3

In the next test the test system is MRSA strain JMI 1280. The test is described as follows: Broth microdilution checkerboard assay. Details: unit not given here. The settings on record: for MICinitial: each agent alone (initial); for MICfinal: * = Resensitization.
Text: as §1, §2, §3

For a further test, the system named is MRSA strain JMI 227. Briefly: Broth microdilution checkerboard assay. The settings on record: for MICinitial: each agent alone (initial); for MICfinal: * = Resensitization. On the set-up: unit not given here.
Text: as §1, §2, §3

The subject of another test is MRSA strain JMI4789. Briefly: Broth microdilution checkerboard assay. On the set-up: unit not given here. The settings on record: for MICinitial: each agent alone (initial); for MICfinal: * = Resensitization.
Text: as §1, §2, §3

A further test concerns MRSA strain MW2. The test is described as follows: Broth microdilution checkerboard assay. Details: unit not given here. The settings on record: for MICinitial: each agent alone (initial); for MICfinal: * = Resensitization.
Text: as §1, §2, §3

Another test has as its system MRSA strain NRS 11. Briefly: Broth microdilution checkerboard assay. As to conditions: for MICinitial: each agent alone (initial); for MICfinal: * = Resensitization. Details: unit not given here.
Text: as §1, §2, §3

Test [1] deals with nine different MRSA strains. The test is described as follows: Broth microdilution checkerboard assays, summary over the panel. As to conditions: each of the nine MRSA strains; breakpoint MIC ≤2 sensitive.
Text: as §1, §2
A step-wise approach was used to evaluate PlySs2 as a resensitizing agent. First, broth microdilution checkerboard assays were used to determine fractional inhibitory concentration index (FICI) values for combinations of PlySs2 with three β-lactam antibiotics [oxacillin (OXA), nafcillin (NAF), and cefazoline (CFZ)] against nine different MRSA strains. […] Representative single agent MICs are also shown, determined for each agent alone (initial) and in combinations (final). […]

Setting [2] is: in combination PlySs2 + CFZ (final).
Where [3] appears, read: in combination PlySs2 + NAF (final).

`Cc1nnc(SCC2=C(C(=O)O)N3C(=O)[C@@H](NC(=O)Cn4cnnn4)[C@H]3SC2)s1` [CFZ, cefazoline]: the MICinitial in the test with MRSA strain ATCC 33591 is 128; with MRSA strain ATCC 43300 it was 16; with MRSA strain CAIRD 426, 8; in the test on MRSA strain HPV 107, 16; with MRSA strain JMI 1280, 32; in the test with MRSA strain JMI 227 it was 2. In addition, the figures for the MICinitial in the test on MRSA strain JMI4789, in the test with MRSA strain MW2 and with MRSA strain NRS 11 were 4, 4 and 256, respectively. Further, the MICfinal in the test on MRSA strain ATCC 33591 (setting [2]) is on record as 0.5*; with MRSA strain ATCC 43300 (setting [2]), 4; in the test on MRSA strain CAIRD 426 (setting [2]), 0.5*; with MRSA strain HPV 107 (setting [2]), 2*; in the test on MRSA strain JMI 1280 (setting [2]) it was 0.5*; with MRSA strain JMI 227 (setting [2]), 0.5. For the same compound, the MICfinal in the test on MRSA strain JMI4789 (setting [2]), with MRSA strain MW2 (setting [2]) and in the test with MRSA strain NRS 11 (setting [2]) was 1* each time. In [1], the “MIC in synergistic combination with PlySs2 relative to breakpoint” value was “below breakpoint values”.
Turning to `CCOc1ccc2ccccc2c1C(=O)N[C@@H]1C(=O)N2[C@@H]1SC(C)(C)[C@@H]2C(=O)O` [NAF, nafcillin], the MICinitial in the test with MRSA strain ATCC 33591 came out at 64; in the test on MRSA strain ATCC 43300 it was 2; in the test with MRSA strain CAIRD 426 it was 16; in the test on MRSA strain HPV 107, 2; in the test with MRSA strain JMI 1280 it was 256; in the test on MRSA strain JMI 227 it was 4. The MICinitial amounted to 4 in the test on MRSA strain JMI4789, 4 in the test on MRSA strain MW2 and 64 with MRSA strain NRS 11. Besides, the MICfinal is 2* with MRSA strain ATCC 33591 (setting [3]); 0.25 in the test with MRSA strain ATCC 43300 (setting [3]); 1* with MRSA strain CAIRD 426 (setting [3]); 0.25 in the test with MRSA strain HPV 107 (setting [3]); 2* in the test on MRSA strain JMI 1280 (setting [3]); 0.5* in the test on MRSA strain JMI 227 (setting [3]). Besides, the MICfinal in the test with MRSA strain JMI4789 (setting [3]) was 0.5*; in the test on MRSA strain MW2 (setting [3]), 0.031*; with MRSA strain NRS 11 (setting [3]), 1*. Moreover, the “MIC in synergistic combination with PlySs2 relative to breakpoint” value in test [1] is listed as “below breakpoint values”.
